Source: patent publication US20220031642A1, “Niclosamide Formulations and Methods of Use” (priority 2020, published 2022)

Legend:
SARS-CoV-2 = experiment: microbe, parasite or virus in culture; assay type: cell-based; settings: Severe acute respiratory syndrome coronavirus 2, Vero C1008; Vero E6 cells, reporter SARS-CoV-2 MOI of 0.1, luciferase activity 24 h post-infection; read-out: antiviral EC50
[1] = human, in vivo, po; cited from earlier work

O=C(Nc1ccc([N+](=O)[O-])cc1Cl)c1cc(Cl)ccc1O [niclosamide, Niclosamide]
EC50 (SARS-CoV-2): 0.15 µM
tmax (plasma levels peaked) [1]: 4 h
